Test system: clustered short slip-outs on (CAG)50●(CTG)50 (S-DNA)
Experiment: band-shift NA-DNA binding, clustered short slip-outs (S-DNA)
Design: species or system human
Settings: NA 0.15-50 μM, 4% polyacrylamide gel
From the text: FIG. 2 are the results of experiments showing that NA binds to long CAG slip-outs. […] The (CAG)n DNA sequence (left) can fold into an hairpin structure involving mismatched A-A pair flanking C-G base pairs (middle). NA molecules can intercalate into the DNA helix, with the 2-amino-1,8-naphthyridine moiety (in red) hydrogen bonding to guanine and 8-azaquinolone moiety (in blue) hydrogen bonding to adenine. […] Long slip-outs extruded as a single slip-out from a fully base-paired backbone of (CTG)n●(CAG)n, as described (Pearson et al., 2002, Nuc. Acids Res., 30:4534-47). DNAs were mixed with increasing concentrations of NA (0.15 μM, 0.75 μM, 7.5 μM and 50 μM) and resolved on 4% polyacrylamide gels. All lanes are from the same gel, and they were separated for clarity. NA-DNA complexes are shown by brackets, free DNA is indicated by arrowheads. […] The relative migration was measured for the linear and the three slip-outs substrates as the ratio of the migration distance of each NA-DNA complex to the migration distance of the free DNA. The migration distance was measured from the well to a consistent center point of each band. […]

## naphthyridine-azaquinolone
  NA binding (band-shift): can bind NA to a limited degree

Source: US11672786B2, “Methods of treating diseases associated with repeat instability” (The Hospital for Sick Children, priority 2016, dated 2023)
